Measurements published in PubChem BioAssay (NCI).
Several values for one entry are separate records, joined by “and”; a condition that tells them apart may be missing. Equal values may be shown once.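 Interpolation was linear, between the two tested concentrations surrounding the appropriate level; five concentrations were tested over 48 hours in 96-well plates. Here, GI50 denotes the concentration required for 50% inhibition of growth. TGI: total growth inhibition.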

Key:
Assay in all cases: NCI anticancer screen, dose series, 48 h
[1] = system: CAKI-1 renal
[2] = system: SR leukemia
[3] = system: NCI-H226 lung
[4] = system: RPMI-8226 leukemia
[5] = system: OVCAR-5 ovarian
[6] = system: M14 melanoma
[7] = system: KM12 colon
[8] = system: TK-10 renal
[9] = system: DMS 114 small cell lung
[10] = system: KM20L2 colon

SMILES: COc1cc2c3c(n(CCCN)c(=O)c2cc1OC)-c1ccc([N+](=O)[O-])cc1C3=O
- GI50 [1]: 4.7 µM
- TGI [1]: 19.4 µM
- GI50 [2]: 0.0731 µM
- TGI [2]: 10.4 µM
- GI50 [3]: 17.4 µM
- TGI [3]: 38.3 µM
- GI50 [4]: 1.75 µM
- TGI [4]: 4.91 µM
- GI50 [5]: 15.9 µM
- TGI [5]: 30.7 µM
- GI50 [6]: 5.77 µM
- TGI [6]: 19.4 µM
- GI50 [7]: 14.6 µM
- TGI [7]: 31 µM
- GI50 [8]: 20.7 µM
- TGI [8]: 41.4 µM

SMILES: Nc1ccn(C2CC(F)C(CO)O2)c(=O)n1 (stereo not given)
- GI50 [1]: > 100 µM
- TGI [1]: > 100 µM
- GI50 [2]: > 100 µM
- TGI [2]: > 100 µM
- GI50 [3]: > 100 µM
- TGI [3]: > 100 µM
- GI50 [4]: > 100 µM
- TGI [4]: > 100 µM
- GI50 [5]: > 100 µM
- TGI [5]: > 100 µM
- GI50 [6]: > 100 µM
- TGI [6]: > 100 µM
- GI50 [7]: > 100 µM
- TGI [7]: > 100 µM
- GI50 [8]: > 100 µM
- TGI [8]: > 100 µM

SMILES: O=C(O)C[C@H](O)C[C@H](O)/C=C/c1c(C2CC2)nc2ccccc2c1-c1ccc(F)cc1
- GI50 [1]: 2.66 µM and 1.25 µM
- TGI [1]: 12.5 µM and 5.31 µM
- GI50 [2]: 2.59 µM and 0.615 µM
- TGI [2]: > 100 µM
- GI50 [3]: 11.7 µM and 2.22 µM
- TGI [3]: 51.6 µM and 8.01 µM
- GI50 [4]: 25 µM and 10.4 µM
- TGI [4]: > 100 µM
- GI50 [5]: 52.6 µM and 7.32 µM
- TGI [5]: > 100 µM
- GI50 [6]: 5.34 µM and 4.38 µM
- TGI [6]: > 100 µM
- GI50 [7]: 34.2 µM and 24.8 µM
- TGI [7]: > 100 µM
- TGI [8]: > 100 µM

SMILES: Cc1ccc(S(=O)(=O)N/N=C(\c2nc3ccc(Cl)cc3[nH]c2=O)C(O)c2ccco2)cc1 (stereo not given)
- TGI [1]: > 100 µM
- TGI [9]: > 100 µM
- TGI [3]: > 100 µM
- TGI [5]: > 100 µM
- TGI [6]: > 100 µM
- TGI [7]: > 100 µM
- TGI [10]: > 100 µM
- TGI [8]: > 100 µM

SMILES: COc1ccccc1/C=C1\COc2ccc(-c3ccccc3)cc2C1=O
- GI50 [1]: 4.74 µM
- TGI [1]: > 100 µM
- GI50 [2]: 1.31 µM
- TGI [2]: > 100 µM
- GI50 [3]: 4.02 µM
- TGI [3]: 17.7 µM
- GI50 [4]: 2.83 µM
- TGI [4]: > 100 µM
- GI50 [5]: 5.29 µM
- TGI [5]: 21.1 µM
- GI50 [6]: 4 µM
- TGI [6]: 32.2 µM
- GI50 [7]: 1.93 µM
- TGI [7]: 5.55 µM
- GI50 [8]: 2.64 µM
- TGI [8]: 7.91 µM

SMILES: Cn1cnc(N)c(N=O)c1=O
- TGI [1]: > 10 µM
- TGI [2]: > 10 µM
- TGI [3]: > 10 µM
- TGI [4]: > 10 µM
- TGI [5]: > 10 µM
- TGI [6]: > 10 µM
- TGI [7]: > 10 µM
- TGI [8]: > 10 µM

SMILES: Fc1ccc(-c2ncn(C3CCNCC3)c2-c2ccnc(Oc3ccc4c(c3)OCO4)n2)cc1
- GI50 [1]: > 20.9 µM
- TGI [1]: > 25 µM
- GI50 [2]: 13.6 µM
- TGI [2]: > 25 µM
- GI50 [3]: > 17 µM
- TGI [3]: > 25 µM
- GI50 [4]: > 25 µM
- TGI [4]: > 25 µM
- GI50 [5]: > 25 µM
- TGI [5]: > 25 µM
- GI50 [6]: 10.4 µM
- TGI [6]: > 25 µM
- GI50 [7]: > 25 µM
- TGI [7]: > 25 µM
- GI50 [8]: > 25 µM
- TGI [8]: > 25 µM

SMILES: C/C(CC(=O)NCCc1ccccc1)=N\NS(=O)(=O)c1ccc(C)cc1
- TGI [9]: > 100 µM
- TGI [3]: > 100 µM
- TGI [4]: > 100 µM
- TGI [5]: > 100 µM
- TGI [6]: > 100 µM
- TGI [7]: > 100 µM
- TGI [10]: > 100 µM
- TGI [8]: > 100 µM

SMILES: Cc1cc2c(c(C(N)=O)c1C)-c1cccc(F)c1C2=O
- TGI [9]: > 100 µM
- TGI [4]: > 100 µM
- TGI [5]: > 100 µM
- TGI [6]: > 100 µM
- TGI [7]: > 100 µM
- TGI [10]: > 100 µM
- TGI [8]: > 100 µM

SMILES: CCOC(=O)NC(=O)c1cn(CCN2CCN(C(=O)CNC(=O)CNC(=O)Cn3cc(C(=O)NC(=O)OCC)c(=O)[nH]c3=O)CC2)c(=O)[nH]c1=O
- TGI [1]: > 100 µM
- TGI [9]: > 100 µM
- TGI [2]: > 100 µM
- TGI [5]: > 100 µM
- TGI [6]: > 100 µM
- TGI [7]: > 100 µM
- TGI [10]: > 100 µM
- TGI [8]: > 100 µM

SMILES: O=[N+]([O-])c1cc[n+]([O-])c2ccccc12
- GI50 [1]: 0.307 µM
- TGI [1]: 0.937 µM
- GI50 [2]: 0.0245 µM
- TGI [2]: > 100 µM
- GI50 [3]: 0.311 µM
- TGI [3]: 1.38 µM
- GI50 [4]: 0.0439 µM
- TGI [4]: 0.358 µM
- GI50 [5]: 2.42 µM
- TGI [5]: 6.1 µM
- GI50 [6]: 0.182 µM
- TGI [6]: 0.521 µM
- GI50 [7]: 0.0832 µM
- TGI [7]: 0.332 µM
- GI50 [8]: 0.187 µM
- TGI [8]: 0.707 µM

SMILES: O=c1c2c([nH]c3nccn13)CCC2
- TGI [1]: > 10 µM
- TGI [2]: > 10 µM
- TGI [3]: > 10 µM
- TGI [4]: > 10 µM
- TGI [5]: > 10 µM
- TGI [6]: > 10 µM
- TGI [7]: > 10 µM
- TGI [8]: > 10 µM

SMILES: [2H]C([2H])([2H])NC(=O)c1nnc(NC(=O)C2CC2)cc1Nc1cccc(-c2ncn(C)n2)c1OC
- GI50 [1]: 4.52 µM
- TGI [1]: 71.6 µM
- GI50 [2]: 16.9 µM
- TGI [2]: > 100 µM
- GI50 [3]: > 100 µM
- TGI [3]: > 100 µM
- GI50 [4]: 14.2 µM
- TGI [4]: > 100 µM
- GI50 [5]: > 100 µM
- TGI [5]: > 100 µM
- GI50 [6]: 9.22 µM
- TGI [6]: > 100 µM
- GI50 [7]: 32.1 µM
- TGI [7]: > 100 µM
- GI50 [8]: 8.28 µM
- TGI [8]: > 100 µM

SMILES: COc1c(C(C)=O)c(OCCCCOc2c(C(C)=O)c(OC)c3ccoc3c2OC)c(OC)c2occc12
- GI50 [1]: 3.3 µM
- TGI [1]: > 100 µM
- GI50 [2]: 0.258 µM
- TGI [2]: 7.72 µM
- TGI [3]: > 100 µM
- GI50 [4]: 0.394 µM
- TGI [4]: 5.57 µM
- GI50 [5]: > 100 µM
- TGI [5]: > 100 µM
- GI50 [6]: 2.55 µM
- TGI [6]: > 100 µM
- GI50 [7]: 3.11 µM
- TGI [7]: > 100 µM
- GI50 [8]: > 23.4 µM
- TGI [8]: > 100 µM

SMILES: C1=C(c2ccccc2)C(N2CCOCC2)Oc2ccccc21 (stereo not given)
- TGI [1]: > 100 µM
- TGI [2]: > 100 µM
- TGI [3]: > 100 µM
- TGI [4]: > 100 µM
- TGI [5]: > 100 µM
- TGI [6]: > 100 µM
- TGI [7]: > 100 µM
- TGI [8]: > 100 µM

SMILES: CCCCNNC(=O)c1ccc(Br)cc1
- GI50 [1]: 2.88 µM
- TGI [1]: > 27 µM
- GI50 [2]: 2.76 µM
- TGI [2]: > 50 µM
- GI50 [3]: 9.86 µM
- TGI [3]: > 50 µM
- GI50 [4]: 0.956 µM
- TGI [4]: > 50 µM
- GI50 [5]: 1.01 µM
- TGI [5]: > 15.3 µM
- GI50 [6]: 2.46 µM
- TGI [6]: > 50 µM
- GI50 [7]: 7.26 µM
- TGI [7]: > 50 µM
- GI50 [8]: 1.31 µM
- TGI [8]: 12.2 µM

SMILES: CCC[CH2][Sn]([CH2]CCC)([O]C(=O)c1cc(OC)c(OC)cc1OC)[O][Sn]([CH2]CCC)([CH2]CCC)[O]C(=O)c1cc(OC)c(OC)cc1OC
- GI50 [1]: 0.161 µM
- TGI [1]: 0.686 µM
- GI50 [9]: 0.314 µM
- TGI [9]: 1.26 µM
- GI50 [3]: 0.507 µM
- TGI [3]: 1.08 µM
- GI50 [4]: 0.236 µM
- TGI [4]: 0.667 µM
- GI50 [5]: 1.75 µM
- TGI [5]: 3.14 µM
- GI50 [6]: 0.282 µM
- TGI [6]: 0.797 µM
- GI50 [7]: 0.897 µM
- TGI [7]: 2.3 µM
- GI50 [10]: 1.21 µM
- TGI [10]: 2.56 µM
- GI50 [8]: 1.53 µM
- TGI [8]: 2.86 µM
